According to US20150105252A1, “SUBSTITUTED PYRAZOLES AS HERBICIDES” (E I DU PONT DE NEMOURS AND COMPANY, priority 2013, published 2015):

Tested on: Italian ryegrass
Experiment: Test A postemergence
Assay type: in vivo, Lolium multiflorum
Summary of the method: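 Visual injury ratings, 0 = no effect to 100 = complete control, taken about 10 days after treatment against untreated controls. Test chemicals, in a non-phytotoxic surfactant-containing solvent, were sprayed onto soil preemergence or onto one- to two-leaf plants (2–10 cm) postemergence, in loam–sand soil under greenhouse conditions.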

[1] = Postemergence, 500 g ai/ha, 0 to 100 scale (0 no effect, 100 complete control)

| Structure (SMILES) | Italian Ryegrass plant response rating [1] | Italian Ryegrass plant response rating (postemergence, 125 g ai/ha, about 10 days, visual rating on 0 to 100 scale (0 no effect, 100 complete control)) | Italian Ryegrass plant response rating (Postemergence, 125 g ai/ha, 0 to 100 scale, 0 no effect, 100 complete control) |
| --- | --- | --- | --- |
| CCOc1cc(C(=O)NC2CC2)nn1Cc1ccnc(OC(F)F)c1 [Compound 133] | 80 | 60 | – |
| CCc1cc(C(=O)NCC(F)(F)F)nn1Cc1cc(OC(F)F)nn1C [Compound 206] | 50 | – | 0 |
